“Also recorded” adds a separate entry of the source.
Columns and labels:
[1] = in vivo; cited from earlier work
[2] = 200 mg/day orally; cited from earlier work
[3] = water; cited from earlier work
AP-1 = assay: IL-1 induced AP-1 binding activity in chondrocyte lysates; type: cell-based; conditions: lysates from chondrocytes pretreated with the agent (FIG. 1C)
[4] = system: collagenase and stromelysin; assay: IL-1 induced collagenase and stromelysin RNA levels in chondrocytes; type: cell-based; conditions: pretreatment (FIG. 1D)
[5] = system: AP-1 transcriptional activity; assay: IL-1 stimulated AP-1 transcriptional activity (AP-1 driven CAT reporter gene) in transfected chondrocytes; type: cell-based; conditions: IL-1 50 ng/ml, 24 hours, paclitaxel 10^−7 to 10^−5 M
Excerpt: The results shown are representative of three independent experiments.

[6] = system: AP-1 DNA binding activity; assay: IL-1 induced AP-1 DNA binding activity, gel mobility shift assay with chondrocyte extracts; type: cell-based; conditions: chondrocyte lysates, pretreated with paclitaxel 10^−7 to 10^−5 M for 24 hours
Experimental: Binding activity was assayed with a radiolabeled human AP-1 sequence probe and gel mobility shift assay. Extracts from chondrocytes untreated or treated with various amounts of paclitaxel (10^−7 to 10^−5M) followed by IL-1β (20 ng/ml) were incubated with excess probe on ice for 30 minutes, followed by non-denaturing gel electrophoresis. The “com” lane contains excess unlabeled AP-1 oligonucleotide. The results shown are representative of three independent experiments.

[7] = system: Chick Chorioallantoic Membrane (CAM) vasculature; assay: Chick chorioallantoic membrane (CAM) angiogenesis assay; type: in vivo; conditions: for Inhibition/n: 48 hours exposure
Experimental: Fertilized, domestic chick embryos were incubated for 3 days prior to shell-less culturing. In this procedure, the egg contents were emptied by removing the shell located around the air space. The interior shell membrane was then severed and the opposite end of the shell was perforated to allow the contents of the egg to gently slide out from the blunted end. The egg contents were emptied into round-bottom sterilized glass bowls and covered with petri dish covers. These were then placed into an incubator at 90% relative humidity and 3% CO2 and incubated for 3 days.
Ten microliter aliquots of this solution were dried on parafilm for 1 hour forming disks 2 mm in diameter. The dried disks containing paclitaxel were then carefully placed at the growing edge of each CAM at day 6 of incubation. Controls were obtained by placing paclitaxel-free methylcellulose disks on the CAMs over the same time course. After a 2 day exposure (day 8 of incubation) the vasculature was examined with the aid of a stereomicroscope. Liposyn II, a white opaque solution, was injected into the CAM to increase the visibility of the vascular details. The vasculature of unstained, living embryos were imaged using a Zeiss stereomicroscope which was interfaced with a video camera (Dage-MTI Inc., Michigan City, Ind.). […] Image negatives were then made on a graphics recorder (Model 3000; Matrix Instruments, Orangeburg, N.Y.).
The membranes of the 8 day-old shell-less embryo were flooded with 2% glutaraldehyde in 0.1M sodium cacodylate buffer; additional fixative was injected under the CAM. After 10 minutes in situ, the CAM was removed and placed into fresh fixative for 2 hours at room temperature. The tissue was then washed overnight in cacodylate buffer containing 6% sucrose. The areas of interest were postfixed in 1% osmium tetroxide for 1.5 hours at 4° C. The tissues were then dehydrated in a graded series of ethanols, solvent exchanged with propylene oxide, and embedded in Spurr resin. Thin sections were cut with a diamond knife, placed on copper grids, stained, and examined in a Joel 1200EX electron microscope. Similarly, […] sections were cut and stained with […] for light microscopy.
At day 11 of development, chick embryos were used for the corrosion casting technique. Mercox resin (Ted Pella, Inc., Redding, Calif.) was injected into the CAM vasculature using a 30-gauge hypodermic needle. […] After injection, the plastic was allowed to sit in situ for an hour at room temperature and then overnight in an oven at 65° C. The CAM was then placed in 50% aqueous solution of sodium hydroxide to digest all organic components.
This imaging setup was used at a magnification of 160× which permitted the direct visualization of blood cells within the capillaries; thereby blood flow in areas of interest may be easily assessed and recorded. For this study, the inhibition of angiogenesis was defined as an area of the CAM (measuring 2-6 mm in diameter) lacking a capillary network and vascular blood flow. Throughout the experiments, avascular zones were assessed on a 4 point avascular gradient (Table 11). This scale represents the degree of overall inhibition with maximal inhibition represented as a 3 on the avascular gradient scale.

[8] = system: Primary human smooth muscle cells; assay: Smooth muscle cell migration assay (Boyden chamber, rhPDGF-BB chemotaxis); type: cell-based; conditions: chemotaxis to rhPDGF-BB 10 ng/ml, 4 hours
Experimental: Primary human smooth muscle cells were starved of serum in smooth muscle cell basal media containing insulin and human basic fibroblast growth factor (bFGF) for 16 hours prior to the assay. For the migration assay, cells were trypsinized to remove cells from flasks, washed with migration media and diluted to a concentration of 2-2.5×10^5 cells/ml in migration media. […] A 100 μL volume of smooth muscle cells (approximately 20,000-25,000 cells) was added to the top of a Boyden chamber assembly (Chemicon QCM CHEMOTAXIS 96-well migration plate). To the bottom wells, the chemotacetic agent, recombinant human platelet derived growth factor (rhPDGF-BB) was added at a concentration of 10 ng/ml in a total volume of 150 μL. Paclitaxel was prepared in DMSO at a concentration of 10^−2 M and serially diluted 10-fold to give a range of stock concentrations (10^−8 M to 10^−2 M). […]
At the end of the 4 hour period, cells in the top chamber were discarded and the smooth muscle cells attached to the underside of the filter were detached for 30 minutes at 37° C. in Cell Detachment Solution (Chemicon). […] Relative fluorescence units from triplicate wells were averaged after subtracting background fluorescence (control chamber without chemoattractant) and average number of cells migrating was obtained from a standard curve of smooth muscle cells serially diluted from 25,000 cells/well down to 98 cells/well.

collagenase (MMP-1) mRNA = assay: IL-1 induced MMP-1 (collagenase) mRNA expression in chondrocytes, Northern blot
stromelysin (MMP-3) mRNA = assay: IL-1 induced MMP-3 (stromelysin) mRNA expression in chondrocytes, Northern blot
[9] = within 48 hours, depending on concentration
[10] = 10^−5 M paclitaxel, 24 hours pretreatment
[11] = chondrocytes pretreated with paclitaxel for 24 hours

In the case of `CN(C)/N=N/c1[nH]cnc1C(N)=O` [Dacarbazine, dacarbazine], the “absorption from the GI tract” value [1] is listed as “poorly absorbed”.
For `CC(=O)N1CCN(c2ccc(OCC3COC(Cn4ccnc4)(c4ccc(Cl)cc4Cl)O3)cc2)CC1` (centres unmarked) [ketoconazole], the serum concentration [2] is listed as “about 3.2 micrograms” and the “solubility in water” value [3] is listed as “essentially insoluble in water”.
For `CC(=O)O[C@H]1C(=O)[C@@]2(C)[C@H]([C@H](OC(=O)c3ccccc3)[C@]3(O)C[C@H](OC(=O)[C@H](O)[C@@H](NC(=O)c4ccccc4)c4ccccc4)C(C)=C1C3(C)C)[C@]1(OC(C)=O)CO[C@@H]1C[C@@H]2O` [paclitaxel], the “IL-1 induced binding activity” value (AP-1) was “decreased”, the “IL-1 induction of collagenase and stromelysin RNA levels” value [4] was “inhibited” and the “IL-1 induced AP-1 reporter gene CAT activity” value [5] was “decreased CAT activity in a concentration dependent manner; also recorded: reduced IL-1 induced AP-1 reporter gene CAT activity”. For the same compound, the “IL-1 induced AP-1 binding activity to oligonucleotides” value [6] was “decreased”, the Inhibition/n ([7]; 0.25 ug in methylcellulose (10 ul) disk) was 2/11 and the Inhibition/n ([7]; 0.5 ug in methylcellulose (10 ul) disk) was 6/11. The Inhibition/n ([7]; 1 ug in methylcellulose (10 ul) disk) was 6/15, the Inhibition/n ([7]; 5 ug in methylcellulose (10 ul) disk) was 20/27 and the Inhibition/n ([7]; 10 ug in methylcellulose (10 ul) disk) was 16/21. For the same compound, the Inhibition/n ([7]; 30 ug in methylcellulose (10 ul) disk) was 31/31, the “angiogenesis in the CAM” value ([7]; 48 hours after application to the CAM) was “inhibited” and the “avascular gradient scale, maximal avascular zone” value [7, 9] was 3. For the same compound, the “maximal avascular zone diameter” value [7, 9] was 6 mm, the IC50 [8] was 0.76 nM and the “inhibition of collagenase mRNA expression” value (collagenase (MMP-1) mRNA; [10]) was “complete inhibition”. The “collagenase mRNA levels, IL-1 induced” value (collagenase (MMP-1) mRNA; [11]) was “significantly reduced”, the “concentration inhibiting collagenase expression in vitro” value (collagenase (MMP-1) mRNA; chondrocytes, IL-1 induced) was 10^−6 M and the “inhibition of stromelysin mRNA expression” value (stromelysin (MMP-3) mRNA; [10]) was “complete inhibition”. The “stromelysin mRNA levels, IL-1 induced” value (stromelysin (MMP-3) mRNA; [11]) was “significantly reduced” and the “concentration inhibiting stromelysin expression in vitro” value (stromelysin (MMP-3) mRNA; chondrocytes, IL-1 induced) was 10^−6 M.

— patent US20070197957A1, “Implantable sensors, implantable pumps and anti-scarring drug combinations” (priority 2005, published 2007)
